Here are results for one compound from ChEMBL document CHEMBL3046397, “Synthesis and Insecticidal Activity of 4-1, 2, 4-Thiadiazolin-3-ones” (J Pestic Sci, 1994).

One series concerns Mythimna separata. Kind of series: Insecticidal activity against third-instar larvae Mythimna separata (Oriental armyworm) in compound treated maize leaves assessed as mortality at 0.25 to 1 ppm at 25 degC, 65% RH measured after 5 days by leaf dipping method. In kind it is functional.
Series [1] can be described thus: Metabolic stability in Spodoptera litura larvae feaces. In kind it is ADME, organism-based. As to conditions: faeces, read-out: Drug recovery.
Series [2] has as its system Spodoptera litura. Briefly: Insecticidal activity against third-instar larvae of Spodoptera litura in compound treated sweet potato leaves assessed as mortality at 8 to 31 ppm at 25 degC, 65% RH measured after 5 days by leaf dipping method. In kind it is functional.
Series [3] deals with Spodoptera litura. Kind of series: Ovicidal activity against […] Spodoptera litura in paraffin paper assessed as egg mortality at 1 to 4 ppm at 25 degC, 65% RH measured after 7 days by egg dipping method. In kind it is functional.
The nature of series [4]: Stability of the compound under natural condition at 25 degC for 24 hr. In kind it is physicochemical.
For series [5], the system named is Spodoptera litura. Briefly: Metabolic stability in homogenized Spodoptera litura larvae. In kind it is ADME, organism-based. As to conditions: in vivo.

The mortality is the percentage killed. Regarding `O=c1nc(-c2ccccc2Cl)sn1-c1ccc(OC(F)(F)F)cc1`, the mortality in the series with Mythimna separata, in the series with Spodoptera litura [2] and in the series on Spodoptera litura [3] was >90% each time. For the same compound, the dose excreted in series [1] came out at 3.5%. In series [4], the Stability result is given as “Stable”. In the series with Spodoptera litura [5], the Drug recovery is given as 10.4%.
